Test results from patent publication US8129547B2, “Anticoagulation of human blood ex vivo” (priority 2006, dated 2012).

What was measured:
Factor Xa = target: T1, Factor Xa (Homo sapiens, UniProt P00742); test: Determination of Ki values, chromogenic substrate, Dixon evaluation: Factor Xa; assay type: biochemical; conditions: 25° C., tris buffer pH 8.0, substrate CH3OCO-D-Cha-Gly-Arg-pNA
T1 construct: purchased Haemochrom Diagnostica GmbH (Essen, D)

human vein blood = test: Storage of human vein blood after anticoagulation with inhibitor (F1+2 immunoassay); conditions: 25° C.
Method: In the sense of the invention anticoagulation means that the re-formation of thrombin is inhibited in the sampled blood. According to the invention thrombin re-formation is inhibited when no more than 1 nM of thrombin is re-formed in the sampled blood. As described above, the activation of prothrombin to thrombin represents an essential step in the blood coagulation cascade. In this case the prothrombin fragment 1+2 (F1+2) is released in equivalent quantities. It is therefore possible to quantify the thrombin actually formed by determining the fragment produced, thus enabling the prothrombin fragment F1+2 to be used as an indirect marker of an activation of prothrombin to thrombin. The concentration of the prothrombin fragment F1+2 formed may be determined immunologically, for example, with commercial enzyme immunoassays (for example Enzygnost F1+2 micro, Dade Behring GmbH, Marburg).
According to the invention anticoagulation therefore means that no more than 1 nM of prothrombin fragment F1+2 is newly formed in the blood after its sampling. […] Without suitable treatment of the blood to prevent coagulation there is an increase in the concentration of the prothrombin fragment F1+2 in this example to well over 1.3 nM, within a few minutes, due to the plasmatic coagulation, i.e. the blood coagulates.
In this experiment it was determined how long human vein blood can be stored without the formation of thrombin or activation of thrombocytes.
For this purpose blood (9 parts) sampled from a patient was mixed with inhibitor solution (0.05 mM, 0.5 mM or 5 mM in physiological NaCl solution; 1 part). Some of the blood was stored at 25° C., the remainder in the refrigerator at 4° C. The quantity of thrombin formed was determined immunologically during storage based on the formation of the prothrombin fragment F1+2 (Enzygnost F1+2 micro, Dade Behring GmbH, Marburg). […] In this case it is irrelevant whether the blood samples were kept at room temperature (approx. 25° C.) or at 4° C.
For this purpose blood (9 parts) sampled from a patient was mixed with inhibitor solution (0.05 mM, 0.5 mM or 5 mM in physiological NaCl solution; 1 part) and stored at room temperature (about 22±2° C.). The quantity of thrombin formed was determined immunologically during storage based on the formation of the prothrombin fragment F1+2 (Enzygnost F1+2 micro, Dade Behring GmbH, Marburg). It was shown that BAPA′ is capable of keeping anticoagulated blood uncoagulated at a concentration in the blood of 500 μM or 50 μM for more than 48 hours (Table 4). At a concentration of 5 μM BAPA′ prevents coagulation for more than 8 hours.

T1 sequence (P00742 235-488 limits assumed): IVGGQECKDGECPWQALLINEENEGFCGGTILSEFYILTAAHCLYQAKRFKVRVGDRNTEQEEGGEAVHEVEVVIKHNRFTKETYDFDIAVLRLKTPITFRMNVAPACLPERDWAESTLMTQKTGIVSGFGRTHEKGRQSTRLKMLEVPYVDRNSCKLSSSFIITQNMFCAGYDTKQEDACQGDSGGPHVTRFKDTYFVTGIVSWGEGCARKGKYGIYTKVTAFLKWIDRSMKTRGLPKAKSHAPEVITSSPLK
T1 sequence (P00742 41-179 partner limits assumed): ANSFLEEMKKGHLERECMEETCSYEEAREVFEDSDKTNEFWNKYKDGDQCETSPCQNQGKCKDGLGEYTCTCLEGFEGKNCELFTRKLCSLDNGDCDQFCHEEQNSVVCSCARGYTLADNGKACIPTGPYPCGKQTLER

SMILES	Ki (Factor Xa) [nM]	Anticoagulation time (human vein blood; concentration in the blood 500 μM) [h]	Anticoagulation time (human vein blood; concentration in the blood 5 μM) [h]
N=C(N)c1ccc(C=C2CCCCC(=Cc3ccc(C(=N)N)cc3)C2=O)cc1 [Pefabloc tPA/Xa, 2,7-bis(4-amidinobenzylidene)-cycloheptanone-(1)]	5.1	7 to 10	–
COC(=O)[C@H](Cc1cccc(C(=N)N)c1)[C@@H](C)NC(=O)c1ccc(-c2cc[n+]([O-])cc2)cc1 (mixture of isomers) [Otamixaban, 2-(R)-(3-carbamimidoylbenyzyl)-3-(R)-[4-(1-oxypyridin-4-yl)benzoylamino]-butyric acid-methylester]	–	–	12 to 24
